Assay results as given in paper PMC7927146, “Discovery of an Orally Available Diazabicyclooctane Inhibitor (ETX0282) of Class A, C, and D Serine β-Lactamases” (Journal of Medicinal Chemistry, 2020).
Counter-ions that a name gives are not always drawn.

How the values were obtained:
[1] = Stability in intestinal S9 fraction; format: in vitro ADME, human; conditions: for half-life at 10 μM: human, intestinal S9 fraction, pH 7.4
Method: (§1) Liver and intestinal S9 subcellular fractions (Xenotech) from rat and human tissue were diluted to a protein concentration of 0.8 mg/mL in 100 mM potassium phosphate buffer, pH 7.4, and preincubated in a 37 °C water bath for 5 min prior to addition of 10 μM (final) of compound of interest. Serial aliquots were removed at 0, 2, 5, 10, 20, 40, and 60 min and quenched in acetonitrile with internal standard prior to LC/MS/MS[30] to determine concentrations of prodrug. First order degradation half-lives were determined from the slope of the log–linear plots of the depletion data.

[2] = Buffer stability of ester prodrugs; format: physicochemical; conditions: potassium phosphate buffer pH 7.4, 37 °C; for Half-life, pH 7.4 buffer: 10 μM
Method: Buffer stability (potassium phosphate buffer, pH 7.4) was evaluated using the same protocol but without adding the S9 subcellular fractions.

[3] = Stability in intestinal S9 fraction; format: in vitro ADME, rat; conditions: for half-life at 10 μM: rat, intestinal S9 fraction, pH 7.4
Method: as §1

[4] = Stability in liver S9 fraction; format: in vitro ADME, rat; conditions: 37 °C; for Half-life, Rat liver S9: 0.8 mg/mL protein, 10 μM
Method: as §1

[5] = Stability in liver S9 fraction; format: in vitro ADME, human; conditions: 37 °C; for Half-life, Human liver S9: 0.8 mg/mL protein, 10 μM
Method: as §1

[6] = tested on: E. coli ARC2687 (CTX-M-14, AmpC); assay: Broth microdilution MIC; format: cell-based; conditions: Escherichia coli, agent alone
Method: (§2) The potency and spectrum of β-lactamase inhibition by ETX1317 supported further antibacterial profiling in combination with β-lactams against relevant Gram-negative clinical isolates. Approved penicillins and cephalosporins administered orally were evaluated, using not only MIC as a criterion but also oral bioavailability, approved dose levels, and unbound plasma exposures. Cefpodoxime (CPD) emerged as the lead β-lactam candidate.[30] Its approved use as an orally bioavailable proxetil ester prodrug to treat UTI infections was also aligned with our potential target product profile. A fixed 1:2 ratio of cefpodoxime/ETX1317 was utilized as the testing paradigm for antimicrobial susceptibility. […] The addition of ETX1317 to CPD restored its activity to ≤0.5 μg/mL across all Enterobacterales isolates tested, including the CRE strains (identified by “a” in Table 6).
(§3) The broth microdilution susceptibility testing was conducted according to CLSI[39] using CAMHB. Durlobactam and avibactam were synthesized at Entasis Therapeutics. Cefpodoxime (catalog no. J66225) was purchased from Alfa Aesar.

[7] = molecular target: P. aeruginosa AmpC (Class C) (Pseudomonas aeruginosa, UniProt P24735); assay: β-lactamase inhibition, nitrocefin hydrolysis progress curves; format: biochemical
Sequence of P. aeruginosa AmpC (Class C) (P24735 27-397): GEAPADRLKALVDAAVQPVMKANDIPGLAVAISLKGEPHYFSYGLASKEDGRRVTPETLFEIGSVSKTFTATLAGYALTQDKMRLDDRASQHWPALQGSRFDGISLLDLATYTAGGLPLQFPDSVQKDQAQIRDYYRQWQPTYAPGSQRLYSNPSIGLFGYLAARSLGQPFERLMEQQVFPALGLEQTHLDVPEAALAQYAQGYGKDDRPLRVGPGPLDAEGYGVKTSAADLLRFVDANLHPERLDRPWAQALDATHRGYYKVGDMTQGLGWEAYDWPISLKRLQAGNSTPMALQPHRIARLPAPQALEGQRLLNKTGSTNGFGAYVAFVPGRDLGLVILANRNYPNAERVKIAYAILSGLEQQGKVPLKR

[8] = tested on: K. pneumoniae ARC561 (OKP-6, AmpC, OXA-2, SHV-18) ATCC700603; assay: Broth microdilution MIC (BLI alone, cefpodoxime, cefpodoxime + BLI); format: cell-based; conditions: for MIC: Klebsiella pneumoniae, ATCC700603
[9] = molecular target: E. coli TEM-1 (Class A) (Escherichia coli, UniProt P62593); assay: β-lactamase inhibition, nitrocefin hydrolysis progress curves; format: biochemical; conditions: supplement CSV; incubation time not given, values correspond to 60 min
Sequence of E. coli TEM-1 (Class A) (P62593 24-286 limits assumed): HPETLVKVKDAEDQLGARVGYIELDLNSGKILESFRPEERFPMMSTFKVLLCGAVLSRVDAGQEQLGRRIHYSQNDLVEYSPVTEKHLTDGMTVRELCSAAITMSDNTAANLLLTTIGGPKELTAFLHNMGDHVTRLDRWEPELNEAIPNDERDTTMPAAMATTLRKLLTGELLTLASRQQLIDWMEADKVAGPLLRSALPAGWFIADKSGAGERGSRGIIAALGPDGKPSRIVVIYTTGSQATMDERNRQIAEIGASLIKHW

[10] = 14-day GLP toxicology study, daily oral administration; conditions: in vivo
Method: (§4) The safety of ETX0282 was investigated with a 14-day toxicology study under Good Laboratory Practice (GLP) in rats and dogs following daily oral administration. The doses of 500 mg kg^–1 day^–1 and 400 mg kg^–1 day^–1 were established as the NOAELs (no observed adverse effect level) for rats and dogs, respectively.

[11] = Intravenous and oral pharmacokinetics in rats; conditions: rat, 10 mg/kg equivalent dose of ETX1317
[12] = Phase 1 clinical trials in healthy volunteers (NCT03491748); format: in vivo, human; conditions: alone or in combination with cefpodoxime proxetil
Method: as §4

[13] = tested on: E. coli ARC2687; assay: Neutropenic mouse thigh infection model; format: in vivo; conditions: CPDP alone, po, q6h
[14] = molecular target: class A, C, and D serine β-lactamases; assay: β-lactamase inhibition, statements over the enzyme panel; format: biochemical; conditions: 60 min; TEM-1, AmpC, OXA-48; read-out: IC50 against β-lactamases, all values
Method: The spectrum of class A, C, and D β-lactamase inhibition by ETX1317 was evaluated by measuring its ability to protect the β-lactamase substrate nitrocefin from degradation using previously described methods.[13]
The methods used to measure inhibition of β-lactamases were the same as those described in the supplement to Durand-Reville et al.[13] Reaction progress curves at 490 nm for hydrolysis of the chromogenic β-lactamase substrate nitrocefin (SynGene, Bangalore, India) at 100 μM were measured for a range of inhibitor concentrations in 0.1 M sodium phosphate (pH 7.0), 10 mM NaHCO3, and 0.005% Triton X-100 at ambient temperature using a Spectramax absorbance plate reader (Molecular Devices, Sunnyvale, CA). The set of 12 progress curves were fit globally to a second-order kinetic model of enzyme inactivation. […] The second-order inactivation rate constant kinact/Ki was calculated from the set of progress curves using Global Kinetic Explorer (Kintek) as previously described.[13]

[15] = tested on: E. coli ARC3627 (OXA-1, AmpC, CTX-M-15, TEM-1); assay: Broth microdilution MIC (BLI alone, cefpodoxime, cefpodoxime + BLI); format: cell-based; conditions: for MIC: Escherichia coli
[16] = log D; format: physicochemical
[17] = cited from earlier work
[18] = molecular target: K. pneumoniae OXA-48 (Class D) (Klebsiella pneumoniae, UniProt Q6XEC0); assay: biochemical
Sequence of K. pneumoniae OXA-48 (Class D) (Q6XEC0 23-265, looked up): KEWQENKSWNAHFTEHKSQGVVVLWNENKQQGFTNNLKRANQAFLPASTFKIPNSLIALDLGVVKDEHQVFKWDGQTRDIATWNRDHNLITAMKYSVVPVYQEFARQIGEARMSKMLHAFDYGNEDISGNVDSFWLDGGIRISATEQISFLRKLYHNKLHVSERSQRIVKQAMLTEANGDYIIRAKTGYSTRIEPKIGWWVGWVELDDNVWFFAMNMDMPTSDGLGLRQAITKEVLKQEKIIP

[19] = tested on: MDR Enterobacterales clinical isolates; assay: Broth microdilution MIC, statements over the isolate panel; format: cell-based; conditions: read-out: MIC across the clinical isolates of Table 6
Method: as §2, §3

[20] = 0.8 mg/mL protein, 10 μM, 37 °C
[21] = species not given in the sentence, read-out: t1/2, stability to intestinal esterases

## CCOC(=O)[C@@H](F)ON1C(=O)N2C[C@H]1C=C(C)[C@H]2C(N)=O [Compound 15]
[1]; [20]
  Half-life, Human intestinal S9: 38 min
[2]
  Half-life, pH 7.4 buffer: 41 min
[3]; [20]
  Half-life, Rat intestinal S9: 39 min
[4]
  Half-life, Rat liver S9: 4.4 min
[5]
  Half-life, Human liver S9: 6.5 min

## CC1=C[C@@H]2CN(C(=O)N2O[C@H](F)C(=O)OC(C)C)[C@@H]1C(N)=O [Compound 16]
[1]; [21]
  half-life at 10 μM: > 120 min
[3]; [21]
  half-life at 10 μM: > 120 min

## C[C@@H](O)[C@H]1C(=O)N2C(C(=O)O)=C(S[C@@H]3CN[C@H](C(=O)N(C)C)C3)[C@H](C)[C@H]12 [meropenem]
[6]
  MIC: 0.03 µg/mL

## CCOC(=O)[C@H](F)ON1C(=O)N2C[C@H]1C=C(C)[C@H]2C(=O)NCCNS(N)(=O)=O [Compound 19]
[1]; 0.8 mg/mL protein, 10 μM, 37 °C, read-out: Half-life, Human intestinal S9
  half-life at 10 μM: 22 min
[2]; potassium phosphate buffer without S9 fractions
  half-life at 10 μM: 26 min
[3]; 0.8 mg/mL protein, 10 μM, 37 °C, read-out: Half-life, Rat intestinal S9
  half-life at 10 μM: 20 min
[4]; rat, liver S9 fraction, pH 7.4, 0.8 mg/mL protein
  half-life at 10 μM: 10 min
[5]; human, liver S9 fraction, pH 7.4, 0.8 mg/mL protein
  half-life at 10 μM: 9.9 min

## CCOC(=O)[C@H](F)ON1C(=O)N2C[C@H]1C(C)=C[C@H]2C(N)=O [Compound 20]
[1]; [20]
  Half-life, Human intestinal S9: 6.9 min
[2]
  Half-life, pH 7.4 buffer: 22 min
[3]; [20]
  Half-life, Rat intestinal S9: 18 min
[4]
  Half-life, Rat liver S9: 2.4 min
[5]
  Half-life, Human liver S9: 2.4 min

## CCOC(=O)[C@@H](F)ON1C(=O)N2C[C@H]1C(C)=C[C@H]2C(N)=O [Compound 22, Ethyl (2R)-2-[[(2S,5R)-2-Carbamoyl-4-methyl-7-oxo-1,6-diazabicyclo[3.2.1]oct-3-en-6-yl]oxy]-2-fluoro-acetate]
[1]; [20]
  Half-life, Human intestinal S9: 35 min
[2]
  Half-life, pH 7.4 buffer: 44 min
[3]; [20]
  Half-life, Rat intestinal S9: 42 min
[4]
  Half-life, Rat liver S9: 20 min
[5]
  Half-life, Human liver S9: 27 min

## CC1=C[C@@H](C(N)=O)N2C[C@@H]1N(O[C@H](F)C(=O)O)C2=O [Compound 13, (2R)-2-(((2S,5R)-2-Carbamoyl-4-methyl-7-oxo-1,6-diazabicyclo[3.2.1]oct-3-en-6-yl)oxy)-2-fluoroacetic Acid Lithium Salt]
[7]; IC50 (µM) P. aeruginosa AmpC (Class C), supplement CSV, incubation time not given, values correspond to 60 min
  IC50: 0.16 µM
[8]
  MIC: 16 µg/mL
[9]
  IC50: 0.003 µM

## CC1=C[C@@H](C(N)=O)N2C[C@@H]1N(O[C@H](F)C(=O)OC(C)C)C2=O [Compound 23, (2R)-Isopropyl 2-(((2S,5R)-2-Carbamoyl-4-methyl-7-oxo-1,6-diazabicyclo[3.2.1]oct-3-en-6-yl)oxy)-2-fluoroacetate]
[1]; [20]
  Half-life, Human intestinal S9: 163 min
[2]
  Half-life, pH 7.4 buffer: 186 min
[10]; dog, dogs
  NOAEL at 14 day: 400 mg/kg/day
[10]; rat, rats
  NOAEL at 14 day: 500 mg/kg/day
[3]; [20]
  Half-life, Rat intestinal S9: 240 min
[11]
  circulating concentrations of ETX0282 after oral ETX0282: no circulating concentrations of ETX0282 observed
[4]
  Half-life, Rat liver S9: 32 min
[12]
  serious adverse events: no serious adverse events reported
  tolerability: generally well-tolerated
[5]
  Half-life, Human liver S9: 39 min

## COCC1=C(C(=O)OC(C)OC(=O)OC(C)C)N2C(=O)[C@@H](NC(=O)/C(=N\OC)c3csc(N)n3)[C@H]2SC1 (stereo partly drawn) [CPDP, cefpodoxime proxetil]
[13]
  efficacy in thigh model: not efficacious

## CC1=C[C@@H]2CN(C(=O)N2OC(F)(F)C(=O)O)[C@@H]1C(N)=O [Compound 2]
[14]
  IC50: < 15 nM
[9]
  IC50: 0.001 µM

## CC1=C[C@@H]2CN(C(=O)N2OS(=O)(=O)O)[C@@H]1C(N)=O [Durlobactam, durlobactam]
[7]; IC50 10 min, P. aeruginosa AmpC (Class C), 10 min incubation
  IC50: 0.008 ± 0.003 µM
[7]; IC50 60 min, P. aeruginosa AmpC (Class C), 60 min incubation
  IC50: 0.0058 µM
[15]
  MIC: 0.25 µg/mL
[16]
  logD: < 0
[17]
  oral bioavailability F: < 10%
[8]
  MIC: 8 µg/mL
[18]; IC50 10 min, 10 min incubation
  IC50: 24 ± 6 nM
[18]; IC50 60 min, 60 min incubation
  IC50: 5 nM

## NC(=O)[C@@H]1CC[C@@H]2CN1C(=O)N2OS(=O)(=O)O [Avibactam, avibactam]
[16]
  logD: < 0
[17]
  oral bioavailability F: < 10%

## CC1=C[C@@H](C(N)=O)N2C[C@@H]1N(O[C@@H](F)C(=O)O)C2=O [Compound 14]
[15]
  MIC: 0.5 µg/mL

## C[C@H]1COc2c(N3CCN(C)CC3)c(F)cc3c(=O)c(C(=O)O)cn1c23 [levofloxacin]
[6]
  MIC: > 4 µg/mL

## CC1=C[C@@H]2CN(C(=O)N2O[C@H](F)C(=O)O)[C@@H]1C(N)=O [Compound 4]
[15]; E. coli ARC3627, BLI 4 μg/mL
  fold reduction of cefpodoxime MIC compared to the MIC with no BLI: greater than 128 fold
[8]; K. pneumoniae ARC561, BLI 4 μg/mL
  fold reduction of cefpodoxime MIC compared to the MIC with no BLI: greater than 128 fold
[9]
  IC50: 0.001 µM

## COCC1=C(C(=O)O)N2C(=O)[C@@H](NC(=O)/C(=N\OC)c3csc(N)n3)[C@H]2SC1 [cefpodoxime]
[19]
  MIC: > 64 µg/mL

## CC1=C[C@@H](C(N)=O)N2C[C@@H]1N(O[C@@H](F)C(=O)OC(C)C)C2=O [Compound 21]
[1]; [20]
  Half-life, Human intestinal S9: 36 min
[2]
  Half-life, pH 7.4 buffer: 91 min
[3]; [20]
  Half-life, Rat intestinal S9: 68 min
[4]
  Half-life, Rat liver S9: 3 min
[5]
  Half-life, Human liver S9: 8.5 min
